Legend:
[1] = human, in vivo
[2] = Accelerated romidepsin dosing, clinical trial experience (unit doses given intravenously over about one hour or less)
[3] = Earlier clinical investigations of romidepsin: observed toxicities and deaths; details: early development; out of more than 450 patients
[4] = patient five, (Breast Cancer), 8 mg/m^2
[5] = patient four, (Breast Cancer), 8 mg/m^2
[6] = patient two, (Multiple Myeloma), 10 mg/m^2
[7] = patient, (Multiple Myeloma), 8 mg/m^2

C/C=C1\NC(=O)[C@H]2CSSCC/C=C/[C@H](CC(=O)N[C@H](C(C)C)C(=O)N2)OC(=O)[C@H](C(C)C)NC1=O [romidepsin, (1S,4S,10S,16E,21R)-7-[(2Z)-ethylidene]-4,21-diisopropyl-2-oxa-12,13-dithia-5,8,20,23-tetraazabicyclo[8.7.6]tricos-16-ene-3,6,9,19,22-pentanone]
serial serum troponin levels and multiple gated acquisition (MUGA) scans [1]: consistently normal
severity of observed toxicities [1]: mild to moderate
electrocardiogram findings, lab abnormalities, adverse events, and serious adverse events overall ([2]; 15 patients on accelerated dosing regimens): consistent with the results seen in prior clinical trials utilizing romidepsin
Clinically Significant Lab Abnormalities [2, 4]: None
Related SAEs [2, 4]: None
ECG Findings (Machine Alerts) ([2]; patient five, (Breast Cancer), 8 mg/m^2, full wrapped cell: Nonspecific T wave changes, low QRS voltages, tachycardia, possible anterior infarction, left atrial abnormality): Nonspecific T wave
Related Adverse Events ([2]; patient five, GPI-06-0005 (Breast Cancer), 8 mg/m^2 on Days 1, 8, and 15 of Cycle 2 and beyond, 6 accelerated doses, full wrapped cell: Fatigue, dysphagia, dizziness): Fatigue,
Clinically Significant Lab Abnormalities [2, 5]: None
Related SAEs [2, 5]: None
ECG Findings (Machine Alerts) ([2]; patient four, (Breast Cancer), 8 mg/m^2, full wrapped cell: Left anterior fascicular block, low QRS voltages, nonspecific T wave changes, possible left ventricular hypertrophy, possible anterior infarction, tachycardia, sinus arrhythmia): Left anterior
Related Adverse Events ([2]; patient four, GPI-06-0005 (Breast Cancer), 8 mg/m^2 on Days 1, 8, and 15 of Cycle 2 and beyond, 5 accelerated doses, full wrapped cell: Fatigue, vomiting, anemia, anorexia): Fatigue,
Related SAEs ([2]; patient one, (Multiple Myeloma), 10 mg/m^2): None
ECG Findings (Machine Alerts) ([2]; patient one, (Multiple Myeloma), 10 mg/m^2, full wrapped cell: Sinus tachycardia, nonspecific ST changes, low QRS voltages, junctional depression prior to baseline): Sinus tachycardia,
Clinically Significant Lab Abnormalities ([2]; patient one, (Multiple Myeloma), 10 mg/m^2, full wrapped cell: Thrombocytopenia, anemia, neutropenia, increased serum creatinine, hyperpcalcemia): Thrombocytopenia,
Related Adverse Events ([2]; patient one, GPI-08-0006 (Multiple Myeloma), 10 mg/m^2 on Days 1, 8, and 15 of Cycle 1 and beyond, 2 accelerated doses, full wrapped cell: Flushing, cold feeling, nausea, vomiting, back pain, canker sore, fatigue, UTI, hypokalemia, hypophosphatemia): Flushing,
Related SAEs ([2]; patient three, (Multiple Myeloma), 10 mg/m^2): None
ECG Findings (Machine Alerts) ([2]; patient three, (Multiple Myeloma), 10 mg/m^2, full wrapped cell: Nonspecific T waves changes possibly due to myocardial ischemia, results consistent with baseline ECGs): Nonspecific T waves
Clinically Significant Lab Abnormalities ([2]; patient three, (Multiple Myeloma), 10 mg/m^2, full wrapped cell: Thrombocytopenia, anemia, neutropenia): Thrombocytopenia,
Related Adverse Events ([2]; patient three, GPI-08-0006 (Multiple Myeloma), 10 mg/m^2 on Days 1, 8, and 15 of Cycle 1 and beyond, 13 accelerated doses, full wrapped cell: Nausea, vomiting, flushing, constipation, headache, body aches, abdominal pain, diarrhea, bloating, vein erythema): Nausea,
QTC (ECG machine alert) [2, 6]: close to 450
Related SAEs [2, 6]: None
ECG Findings (Machine Alerts) ([2]; patient two, (Multiple Myeloma), 10 mg/m^2, full wrapped cell: T wave changes, conduction defect of right bundle branch block, low QRS spatial velocity, QTC close to 450): T wave changes,
Clinically Significant Lab Abnormalities ([2]; patient two, (Multiple Myeloma), 10 mg/m^2, full wrapped cell: Thrombocytopenia, anemia, neutropenia, increased serum creatinine): Thrombocytopenia,
Related Adverse Events ([2]; patient two, GPI-08-0006 (Multiple Myeloma), 10 mg/m^2 on Days 1, 8, and 15 of Cycle 1 and beyond, 2 accelerated doses, full wrapped cell: Knee pain, headache, skin crawling, cold feet, malaise, bowel urgency, nausea, vomiting): Knee pain,
Adverse Events reported directly after infusion ([2]; patient, 78 kg, 26 mg on days 1, 8, and 15 of 28 day cycle, accelerated dose Day 15 of cycle 8, full wrapped cell: Nausea, vomiting and diarrhoea, heamaturia): Nausea,
LAB ([2]; patient, 78 kg, 26 mg, accelerated dose Day 15 of cycle 8, full wrapped cell: Hypocalcaemia noted): Hypocalcaemia
ECG ([2]; patient, 78 kg, 26 mg, accelerated dose Day 15 of cycle 8, full wrapped cell: Post infusion ECG - peaked T waves laterally and subtle ST depression laterally but otherwise normal ECG next day was normal): Post infusion
Adverse Events reported directly after infusion ([2]; patient, 95.8 Kg, 30.5 mg on days 1, 8, and 15 of 28 day cycle, accelerated dose Day 1 of cycle 8): None
lateral ST depression on post infusion ECG ([2]; patient, 95.8 Kg, 30.5 mg, accelerated dose Day 1 of cycle 8, asymptomatic): of 1 mm.
LAB ([2]; patient, 95.8 Kg, 30.5 mg, accelerated dose Day 1 of cycle 8, full wrapped cell: No immediate effect but hypocalcaemia later): No immediate
ECG ([2]; patient, 95.8 Kg, 30.5 mg, accelerated dose Day 1 of cycle 8, full wrapped cell: Post infusion ECG asymptomatic - showed some lateral ST depression of 1 mm. ECG 2 hours later showed improvement): Post infusion
Related SAEs ([2]; patient, 103 Kg, (Multiple Myeloma), 10 mg/m^2): None
ECG Findings (Machine Alerts) ([2]; patient, 103 Kg, (Multiple Myeloma), 10 mg/m^2, full wrapped cell: Nonspecific T wave changes, ST junctional depression): Nonspecific T wave
Clinically Significant Lab Abnormalities ([2]; patient, 103 Kg, (Multiple Myeloma), 10 mg/m^2, full wrapped cell: Thrombocytopenia, anemia, neutropenia, hypoalbuminemia): Thrombocytopenia,
Related Adverse Events ([2]; patient, 103 Kg, GPI-08-0006 (Multiple Myeloma), 10 mg/m^2 on Days 1, 8, and 15 of Cycle 1 and beyond, 4 accelerated doses, full wrapped cell: Nausea, thrombocytopenia, fatigue, vein erythema, vomiting): Nausea,
Adverse Events reported directly after infusion ([2]; patient, 13 mg on days 1, 8, and 15 of 28 day cycle, accelerated dose Day 15 of cycle 2): None
LAB ([2]; patient, 13 mg, accelerated dose Day 15 of cycle 2, full wrapped cell: No abnormalities): No
ECG ([2]; patient, 13 mg, accelerated dose Day 15 of cycle 2, full wrapped cell: Post dose ECGs taken on same day and next day, no abnormalities notes): Post dose
Related SAEs ([2]; patient, (Giant Cell), 12 mg/m^2): None
Clinically Significant Lab Abnormalities ([2]; patient, (Melanoma), 8 mg/m^2): None
Related SAEs ([2]; patient, (Melanoma), 8 mg/m^2): None
ECG Findings (Machine Alerts) ([2]; patient, (Melanoma), 8 mg/m^2, full wrapped cell: Nonspecific T wave changes possibly due to myocardial ischemia, low QRS voltages, sinus tachycardia, possible inferior infarction): Nonspecific T wave
Clinically Significant Lab Abnormalities [2, 7]: None
Related SAEs [2, 7]: None
ECG Findings (Machine Alerts) ([2]; patient, (Multiple Myeloma), 10 mg/m^2, full wrapped cell: T wave inversion, low QRS voltages, reversed R wave progression): T wave inversion,
Clinically Significant Lab Abnormalities ([2]; patient, (Multiple Myeloma), 10 mg/m^2, full wrapped cell: Thrombocytopenia, anemia, neutropenia, hypoalbuminemia, hypokalemia): Thrombocytopenia,
Related SAEs ([2]; patient, (Multiple Myeloma), 10 mg/m^2, full wrapped cell: Vomiting, headache, dehydration): Vomiting,
Clinically Significant Lab Abnormalities ([2]; patient, (NHL), 8 mg/m^2): None
Related SAEs ([2]; patient, (NHL), 8 mg/m^2): None
ECG Findings (Machine Alerts) ([2]; patient, (NHL), 8 mg/m^2, full wrapped cell: Probable normal variant, borderline lateral T wave changes, low QRS voltages): Probable normal
Related SAEs ([2]; patient, (Ovarian Cancer), 12 mg/m^2, full wrapped cell: Atrial fibrillation): Atrial
Related Adverse Events ([2]; patient, GPI-06-0005 (Melanoma), 8 mg/m^2 on Days 1, 8, and 15 of Cycle 2 and beyond, 3 accelerated doses, full wrapped cell: Fatigue, vomiting): Fatigue,
Related Adverse Events ([2]; patient, GPI-06-0005 (NHL), 8 mg/m^2 on Days 1, 8, and 15 of Cycle 2 and beyond, 3 accelerated doses): Fatigue
ECG Findings (Machine Alerts) ([2]; patient, GPI-08-0006 (Multiple Myeloma), 8 mg/m^2 on Days 1, 8, and 15 of Cycle 1 and beyond, 4 accelerated doses): None
Related Adverse Events ([2]; patient, GPI-08-0006 (Multiple Myeloma), 10 mg/m^2 on Days 1, 8, and 15 of Cycle 1 and beyond, 1 accelerated dose, full wrapped cell: Nausea, vomiting, headache, dehydration): Nausea,
rate of serious adverse events vs unit doses administered over about 4 hours ([2]; unit doses over less than about one hour): without increasing the rate of serious adverse events
deaths during clinical investigations [3]: 6

From patent US20100152100A1, “ACCELERATED THERAPY” (Gloucester Pharmaceuticals, Inc., priority 2008, published 2010)
